Laboratory results as given in ChEMBL document CHEMBL6153019, “A series of indole-derived γ-hydroxy propiolate esters as potent anti-inflammatory agents: Design, synthesis, in-vitro and in-vivo biological studies” (Eur J Med Chem, 2024).
Active and inactive are the calls of the source. No cut-off for these calls is given here.

What was measured:
RAW264.7 [1] = assay: Anti-inflammatory activity against LPS-Induced mouse RAW264.7 cells assessed as inhibition of Nitric oxide release at 10 uM measured after 18 hrs by Griess reagent assay relative to control; assay type: functional; design: Activity: scale not given: the % may be the effect or the level left; settings: for inhibition at 10 µM: Mus musculus, RAW264.7
RAW264.7 [2] = assay: Anti-inflammatory activity against LPS-Induced mouse RAW264.7 cells assessed as inhibition of COX-2 at 5 uM incubated for 24 hrs by ELISA method relative to control; assay type: functional
RAW264.7 [3] = assay: Anti-inflammatory activity against LPS-Induced mouse RAW264.7 cells assessed as inhibition in COX-2 expression at 1uM incubated for 24 hrs by ELISA method; assay type: functional, cell-based
RAW264.7 [4] = assay: Anti-inflammatory activity against LPS-Induced mouse RAW264.7 cells assessed as inhibition of Nitric oxide release at 1 uM measured after 18 hrs by Griess reagent assay; assay type: functional, cell-based
RAW264.7 [5] = assay: Anti-inflammatory activity against LPS-Induced mouse RAW264.7 cells assessed as inhibition of LT release at 5 uM incubated for 24 hrs by LT determination assay relative to control; assay type: functional
Mus musculus [6] = assay: Anti-inflammatory activity against female Kunming mouse model xylene-induced auricle edema assessed as inhibition of ear swelling at 50 mg/kg, ip measured after 1 hr relative to control; assay type: functional; design: scale not given: the % may be the effect or the level left
RAW264.7 [7] = assay: Anti-inflammatory activity against LPS-Induced mouse RAW264.7 cells assessed as inhibition of PGE2 production at 10 uM measured after 24 hrs by ELISA method; assay type: functional
RAW264.7 [8] = assay: Anti-inflammatory activity against LPS-Induced mouse RAW264.7 cells assessed as inhibition of Nitric oxide release at 1 uM measured after 18 hrs by Griess reagent assay relative to control; assay type: functional
RAW264.7 [9] = assay: Anti-inflammatory activity against LPS-Induced mouse RAW264.7 cells assessed as inhibition of LT release at 1 uM incubated for 24 hrs by LT determination assay relative to control; assay type: functional
RAW264.7 [10] = assay: Anti-inflammatory activity against LPS-Induced mouse RAW264.7 cells assessed as inhibition of PGF1 production at 5 uM incubated for 24 hrs by ELISA method relative to control; assay type: functional
RAW264.7 [11] = assay: Anti-inflammatory activity against LPS-Induced mouse RAW264.7 cells assessed as inhibition of COX-2 expression level at 5 uM incubated for 24 hrs by ELISA method relative to control; assay type: functional
RAW264.7 [12] = assay: Anti-inflammatory activity against LPS-Induced mouse RAW264.7 cells assessed as inhibition of TXB-2 release at 1 uM incubated for 24 hrs by LT determination assay relative to control; assay type: functional
Mus musculus [13] = assay: Anti-inflammatory activity against female Kunming mouse model xylene-induced auricle edema assessed as inhibition rate of ear swelling measured after 1 hr; assay type: functional, organism-based
RAW264.7 [14] = assay: Anti-inflammatory activity against LPS-Induced mouse RAW264.7 cells assessed as inhibition of PGE2 production at 1uM measured after 24 hrs by ELISA method; assay type: functional
RAW264.7 [15] = assay: Anti-inflammatory activity against LPS-Induced mouse RAW264.7 cells assessed as increase inhibition of PGE2 production measured after 24 hrs by ELISA method; assay type: functional, cell-based
RAW264.7 [16] = assay: Anti-inflammatory activity against LPS-Induced mouse RAW264.7 cells assessed as inhibition of PGF1 production at 1 uM incubated for 24 hrs by ELISA method relative to control; assay type: functional
RAW264.7 [17] = assay: Antiproliferative activity against mouse RAW264.7 cells assessed as tumor growth inhibition at 10 uM preincubated for 4 hrs followed by compound addition and measured after 20 hrs by MTT assay; assay type: functional, cell-based
RAW264.7 [18] = assay: Anti-inflammatory activity against LPS-Induced mouse RAW264.7 cells assessed as inhibition of PGE2 production at 5 uM measured after 24 hrs by ELISA method; assay type: functional, cell-based
[19] = Cytotoxicity against mouse RAW264.7 cells assessed as cell survival at 5 uM preincubated for 4 hrs followed by compound addition and measured after 20 hrs by MTT assay relative to control; assay type: toxicity, cell-based; settings: read-out: Survival
RAW264.7 [20] = assay: Anti-inflammatory activity against LPS-Induced mouse RAW264.7 cells assessed as inhibition of TXB-2 release at 5 uM incubated for 24 hrs by LT determination assay relative to control; assay type: functional; design: scale not given: the % may be the effect or the level left
Mus musculus [21] = assay: Anti-inflammatory activity against female Kunming mouse model xylene-induced auricle edema assessed as inhibition of ear swelling at 100 mg/kg, IP measured after 1 hr relative to control; assay type: functional; design: scale not given: the % may be the effect or the level left
[22] = Cytotoxicity against mouse RAW264.7 cells assessed as cell survival at 10 uM preincubated for 4 hrs followed by compound addition and measured after 20 hrs by MTT assay relative to control; assay type: toxicity, cell-based; settings: read-out: Survival
RAW264.7 [23] = assay: Anti-inflammatory activity against LPS-induced mouse RAW264.7 cells assessed as inhibition of 5-LOX protein expression at 5 uM incubated for 24 hrs by ELISA method relative to control; assay type: functional
RAW264.7 [24] = assay: Anti-inflammatory activity against LPS-Induced mouse RAW264.7 cells assessed as inhibition of COX-1 expression level at 5 uM incubated for 24 hrs by ELISA method relative to control; assay type: functional
RAW264.7 [25] = assay: Anti-inflammatory activity against LPS-induced mouse RAW264.7 cells assessed as downregulation of COX-1 protein expression level incubated for 24 hrs by ELISA method; assay type: functional, cell-based
RAW264.7 [26] = assay: Anti-inflammatory activity against LPS-induced mouse RAW264.7 cells assessed as inhibition of COX-1 expression at 5 uM incubated for 24 hrs by ELISA method relative to control; assay type: functional

Structure (SMILES): COC(=O)C#CC1(O)C(=O)Nc2ccc(C)cc21 (configuration not stated)
- Activity (RAW264.7 [1]): 81.68%

Structure (SMILES): COC(=O)C#CC1(O)C(=O)N(Cc2ccccc2)c2cc(Cl)ccc21 (configuration not stated)
- inhibition at 5 µM (RAW264.7 [2]): 38.8%
- inhibition (RAW264.7 [3]): Active
- inhibition (RAW264.7 [4]): Active
- inhibition at 5 µM (RAW264.7 [5]): 11%
- Activity (Mus musculus [6]): 78.14%
- inhibition at 10 µM (RAW264.7 [7]): 94.5%
- inhibition at 1 µM (RAW264.7 [8]): 50%
- inhibition at 1 µM (RAW264.7 [9]): 25.9%
- inhibition at 5 µM (RAW264.7 [10]): 16.6%
- inhibition at 5 µM (RAW264.7 [11]): 38.8%
- inhibition at 1 µM (RAW264.7 [12]): 25.4%
- Activity (Mus musculus [13]): Dose-dependent-effect
- inhibition at 1 µM (RAW264.7 [14]): 58%
- inhibition at 10 µM (RAW264.7 [1]): 101%
- inhibition (RAW264.7 [15]): Dose-dependent-effect
- inhibition at 1 µM (RAW264.7 [16]): 16%
- Activity (RAW264.7 [17]): Active
- inhibition (RAW264.7 [18]): Active
- viability at 20 h, 5 µM [19]: 57.9%
- Activity (RAW264.7 [20]): 21.14%
- Activity (Mus musculus [21]): 85.43%

Structure (SMILES): COC(=O)C#CC1(O)C(=O)N(C)c2cccc(Cl)c21 (configuration not stated)
- viability at 20 h, 10 µM [22]: 86.7%

Structure (SMILES): COC(=O)C#CC1(O)C(=O)N(Cc2cccc3ccccc23)c2cc(Cl)ccc21 (configuration not stated)
- inhibition at 5 µM (RAW264.7 [2]): 42.6%
- inhibition at 5 µM (RAW264.7 [23]): 71.2%
- inhibition at 5 µM (RAW264.7 [11]): 42.6%
- inhibition at 5 µM (RAW264.7 [24]): 35.3%
- inhibition at 10 µM (RAW264.7 [1]): 102%
- inhibition (RAW264.7 [25]): Active
- inhibition at 5 µM (RAW264.7 [26]): 35.3%

Structure (SMILES): Cc1ccc(-c2cc(C(F)(F)F)nn2-c2ccc(S(N)(=O)=O)cc2)cc1 [CELECOXIB]
- Activity (Mus musculus [21]): 93.23%

Structure (SMILES): COC(=O)C#CC1(O)C(=O)N(Cc2cccc3ccccc23)c2ccc(Cl)cc21 (configuration not stated)
- viability at 20 h, 10 µM [22]: 99.9%
